Measured values from patent US12043602B2, “Fendiline derivatives” (The Board of Regents of the University of Texas System, priority 2019, dated 2024).

Key:
mGFP-K-RASG12V = mGFP-K-RASG12V (Homo sapiens (Human), UniProt P01116, G12V); experiment: K-Ras mislocalization assay (confocal microscopy, Manders coefficient); format: cell-based; design: key to Emax: Manders coefficient: fraction of mCherry-CAAX co-localizing with GFP-K-Ras; conditions: MDCK cells; for IC50: 48 h treatment, read-out: IC50 (μM), KRASG12V mislocalization; for Emax: maximal effect, Manders coefficient; for Emax / EC50: 48 h; for EC50: batch 4 compounds, title calls it IC50, read-out: EC50
In short: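 Readout is the Manders coefficient: share of mCherry-CAAX overlapping mGFP-K-RASG12V in confocal images, proportional to K-Ras mislocalization. Stable MDCK co-expressing lines were exposed 48 h to various drug concentrations or 0.1% DMSO vehicle, then paraformaldehyde-fixed.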

[1] = system: ESS-1 (WT) endometrial tumor cells; experiment: CyQUANT proliferation assay; format: cell-based; design: key: NE—Not efficacious; conditions: 72 h
Experimental: (§1) Madine Darby Canine Kidney epithelial cells (MDCK) stably co-expressing mGFP-tagged full length oncogenic mutant K-Ras (GFP—K-RASG12V) or mGFP-LactC2 (peptide probe for phosphatidylserine) and mCherry-tagged to the amino acids 179-189 of H-RasC181S, C184S (mCherry-CAAX, localizes primarily to endomembranes) were grown in DMEM-high glucose/sodium pyruvate/10% FBS. The medium was supplemented with 1× Penicillin/Streptomycin for fluorescence microscopy assays, to avoid any microbial contamination from the test compounds added. KLE and Hec50 cells were maintained in DMEM-F-12 medium supplemented with 10% FBS. Hec-1A and Hec-1B cells were grown in McCoy's 5a medium supplemented with 10% FBS. ESS-1 cells were grown in RPMI 1640 medium supplemented with 20% FBS. MPanc96 cells were grown in DMEM supplemented with 10% FBS, MiaPaCa-2 cells in DMEM supplemented with 10% FBS and 2.5% horse serum and all other cell lines were grown in RPMI 1640 supplemented with 10% FBS. All cancer cell media were supplemented with ×Penicillin/Streptomycin. All cell lines were grown at 37° C. with 5% CO2.
(§2) Cells were seeded in 96-well plates. After 24 h, fresh growth medium supplemented with 0.1% vehicle (DMSO), or various concentrations of drugs was added and cells were grown for 72 h. Cell numbers were quantified using the CyQUANT® Cell Proliferation Assay Kit (Molecular Probes, Life Technologies), according to the manufacturer's protocol. Fluorescence measurement was used as a measure of live cell number.

[2] = system: Ishikawa (WT) endometrial tumor cells; experiment: CyQUANT proliferation assay; format: cell-based; design: key to IC50 proliferation Ishikawa (WT): NE—Not efficacious; conditions: 72 h
Experimental: as §1, §2

[3] = system: MDCK cells co-expressing GFP-K-RASG12V and mCherry-CAAX; experiment: Cytotoxicity in mislocalization screen (death of all cells in well); conditions: drug caused death of all cells in well at 30 μM
MiaPaCa-2 tumors = experiment: In vivo tumor growth assay (xenograft); design: species or system nu/nu mice; conditions: MiaPaCa2 xenografts in nude mice
Experimental: In Vivo Tumor Growth Assay. All animal studies were performed under an Institutional Animal Care and Use Committee (IACUC) approved animal protocol (AWC-15-0101), in accordance with the National Institutes of Health Guide for the Care and Use of Laboratory Animals. Early passage MiaPaCa-2 cells were harvested, and 2×10^6 cells were implanted into the right flanks of female nu/nu mice. The animals were randomized into control and treated groups (10 mice per group). Tumor volume (V) was measured with an external caliper every 3-4 days and it was calculated as V=0.52 (length×width2). Compound treatment was initiated when the tumor sizes reached 100 mm3. Compounds (12.5 mg/kg) were injected daily intraperitoneally for 5 days, with 2 days of no treatment in between. All treatments were continued until any of the subcutaneous tumors reached 1500 mm3 in volume, when all the animals were sacrificed, and the tumors removed.
Early passage BxPC-3 or MIAPaCa-2 cells were harvested, and 2-3X106 cells were implanted into the right flanks of nu/nu mice. The animals were randomized into control and treated groups (10 mice per group). Tumor volume (V) was measured with an external caliper every 3-4 days and it was calculated as V=0.52 (length×width2). Drug treatment was initiated 4 days after tumor implantation. Drugs were injected daily intraperitoneally (at doses indicated) for 5 days, with 2 days of no treatment in between. All treatments were continued until any of the subcutaneous tumors reached 1500 mm3 in volume or for 6 weeks (whichever was first), when all the animals were sacrificed and the tumors removed.
Next the effect of the selected PMLIs on the growth of oncogenic KRAS expressing MiaPaCa-2 cells implanted subcutaneously into the flanks of nu/nu immunosuppressed mice was determined. […] The animals were randomized into control and PMLI-treated groups (10 mice per group). Treatment was initiated when the tumors reached a mean volume of 100 mm^3. PMLIs were tested at 12.5, 7.5, 5, 2.5 and 1 mg/kg doses, administered once daily intraperitoneally for 5 days, with 2 days of no treatment in between for the duration of the experiment. […] There was no observed toxicity detected in any of the compound-treated groups during the experiment and, accordingly, there was no significant difference in the body weight of the animals in the different groups.

[4] = system: KLE (WT) endometrial tumor cells; experiment: CyQUANT proliferation assay; format: cell-based; design: key: NE—Not efficacious; conditions: 72 h
Experimental: as §1, §2

[5] = system: BxPC-3 (WT) pancreatic tumor cells; experiment: CyQUANT proliferation assay; format: cell-based; design: key to IC50 proliferation BxPC-3 (WT): NE—Not efficacious; conditions: 72 h
Experimental: as §1, §2

[6] = system: MiaPaCa-2 (Mut) pancreatic tumor cells; experiment: CyQUANT proliferation assay; format: cell-based; design: key to IC50 proliferation MiaPaCa-2 (Mut): NE—Not efficacious; conditions: 72 h
Experimental: as §1, §2

[7] = system: MOH (Mut) pancreatic tumor cells; experiment: CyQUANT proliferation assay; format: cell-based; design: key to IC50 proliferation MOH (Mut): NE—Not efficacious; conditions: 72 h
Experimental: as §1, §2

[8] = system: MPanc96 (Mut) pancreatic tumor cells; experiment: CyQUANT proliferation assay; format: cell-based; design: key to IC50 proliferation MPanc96 (Mut): NE—Not efficacious; conditions: 72 h
Experimental: as §1, §2

For C(CN(CCN1CCCC1)C1(c2ccccc2)CC1)=C(c1ccccc1)c1ccccc1 [NY0444, N-(3,3-diphenylallyl)-1-phenyl-N-(2-(pyrrolidin-1-yl)ethyl)cyclopropanamine], the IC50 (mGFP-K-RASG12V) was 0.73 µM, the Emax (mGFP-K-RASG12V) was 0.732 and the “IC50 proliferation ESS-1 (WT)” value [1] was “NE”. For the same molecule, the “IC50 proliferation Ishikawa (WT)” value [2] was “NE” and the “Cytotoxic at 30 μM” value [3] was “Yes”.
In the case of C[C@H](c1ccc(F)cc1)N(CC=C(c1ccccc1)c1ccccc1)CCN1CCCC1 [NY0506, (R)-N-(1-(4-fluorophenyl)ethyl)-3,3-diphenyl-N-(2-(pyrrolidin-1-yl)ethyl)prop-2-en-1-amine], the EC50 (mGFP-K-RASG12V) is reported as 0.528 µM, the Emax (mGFP-K-RASG12V) is reported as 0.808 and the “minimum effective dose on tumor growth relative to fendiline” value (MiaPaCa-2 tumors) is reported as “more potent than fendiline”. The “Cytotoxic at 30 μM” value [3] was “Yes”.
Molecule C[C@H](c1ccccc1)N(CC=C(c1ccccc1)c1ccccc1)CCN1CCN(C)CC1 [NY0513, (R)-N-(2-(4-methylpiperazin-1-yl)ethyl)-3,3-diphenyl-N-(1-phenylethyl)prop-2-en-1-amine] has an IC50 (mGFP-K-RASG12V) of 0.6 µM, an EC50 (mGFP-K-RASG12V) of 0.639 µM and an Emax (mGFP-K-RASG12V) of 0.786. For the same molecule, the Emax (mGFP-K-RASG12V; listed as 15d) was 0.79 ± 0.01, the “IC50 proliferation KLE (WT)” value [4] was “NE” and the “Cytotoxic at 30 μM” value [3] was “Yes”.
In the case of C(CNC1(c2ccccc2)CC1)=C(c1ccccc1)c1ccccc1 [NY040402, N-(3,3-diphenylallyl)-1-phenylcyclopropanamine], the IC50 (mGFP-K-RASG12V) is reported as 0.2 µM, the Emax (mGFP-K-RASG12V) is reported as 0.835 and the “IC50 proliferation BxPC-3 (WT)” value [5] is reported as “NE”. For the same molecule, the “IC50 proliferation MiaPaCa-2 (Mut)” value [6] was “NE”, the “IC50 proliferation MOH (Mut)” value [7] was “NE” and the “IC50 proliferation MPanc96 (Mut)” value [8] was “NE”. For the same molecule, the “Cytotoxic at 30 μM” value [3] was “No”.
With COc1ccc(-c2cc(C(=O)N(CCN3CCCC3)[C@H](C)c3ccc(F)cc3)no2)cc1 [PW323, (R)-N-(1-(4-Fluorophenyl)ethyl)-5-(4-methoxyphenyl)-N-(2-(pyrrolidin-1-yl)ethyl)isoxazole-3-carboxamide] the IC50 (mGFP-K-RASG12V) was 0.05 µM, the Emax (mGFP-K-RASG12V) was 0.852 and the “minimum effective dose on tumor growth relative to fendiline” value (MiaPaCa-2 tumors) was “more potent than fendiline”. The “Cytotoxic at 30 μM” value [3] was “Yes”.
